Laboratory results from ChEMBL document CHEMBL1201862, “PubChem BioAssay data set” (2004).
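Values below derive from 48-hour exposures of cells grown in 96-well plates, with endpoints linearly interpolated between the two concentrations bracketing the appropriate inhibition level. GI50: concentration for 50% inhibition of growth.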 Activity calls are given as the source filed them. Rule as the data show it: active = GI50 up to about 1.1 µM and inactive = higher.

Assays:
Assay in all cases: inhibition of tumour cell growth, NCI panel, 48 h
MDA-MB-435 = test system: MDA-MB-435
NCI-H460 = test system: NCI-H460
SK-OV-3 = test system: SK-OV-3
A549 = test system: A549
MDA-MB-231 = test system: MDA-MB-231
M14 = test system: M14
PC-3 = test system: PC-3
SW-620 = test system: SW-620
HT-29 = test system: HT-29
HCT-116 = test system: HCT-116
OVCAR-8 = test system: OVCAR-8
ACHN = test system: ACHN
OVCAR-5 = test system: OVCAR-5
UO-31 = test system: UO-31
Hs-578T = test system: Hs-578T
TK-10 = test system: TK-10
NCI-H23 = test system: NCI-H23
K562 = test system: K562
NCI-H226 = test system: NCI-H226
LOX IMVI = test system: LOX IMVI
SF-268 = test system: SF-268
U-251 = test system: U-251
MDA-N = test system: MDA-N
HL-60 = test system: HL-60
CCRF-CEM = test system: CCRF-CEM
IGROV-1 = test system: IGROV-1
OVCAR-4 = test system: OVCAR-4
Malme-3M = test system: Malme-3M
NCI-H522 = test system: NCI-H522
UACC-257 = test system: UACC-257
NCI/ADR-RES = test system: NCI/ADR-RES
MOLT-4 = test system: MOLT-4
HCT-15 = test system: HCT-15
SNB-19 = test system: SNB-19
KM12 = test system: KM12
DU-145 = test system: DU-145
SF-539 = test system: SF-539
BT-549 = test system: BT-549
OVCAR-3 = test system: OVCAR-3
SN12C = test system: SN12C
SK-MEL-2 = test system: SK-MEL-2
SF-295 = test system: SF-295
SR = test system: SR
SNB-75 = test system: SNB-75
EKVX = test system: EKVX
786-0 = test system: 786-0
UACC-62 = test system: UACC-62
HOP-92 = test system: HOP-92
SK-MEL-5 = test system: SK-MEL-5
COLO 205 = test system: COLO 205
RXF 393 = test system: RXF 393
HOP-62 = test system: HOP-62
CAKI-1 = test system: CAKI-1
HCC 2998 = test system: HCC 2998
MCF7 = test system: MCF7
SK-MEL-28 = test system: SK-MEL-28
RPMI-8226 = test system: RPMI-8226

O=C1CCC2(c3ccc(Cl)cc3)Nc3ccncc3N12 (stereo unspecified)
GI50 (MDA-MB-435): > 10 µM (inactive)
GI50 (NCI-H460): > 10 µM (inactive)
GI50 (SK-OV-3): 5.52 µM (inactive)
GI50 (A549): > 10 µM (inactive)
GI50 (MDA-MB-231): 0.00507 µM (active)
GI50 (M14): > 10 µM (inactive)
GI50 (PC-3): > 10 µM (inactive)
GI50 (SW-620): > 10 µM (inactive)
GI50 (HT-29): > 10 µM (inactive)
GI50 (HCT-116): > 10 µM (inactive)
GI50 (OVCAR-8): > 10 µM (inactive)
GI50 (ACHN): > 10 µM (inactive)
GI50 (OVCAR-5): > 10 µM (inactive)
GI50 (UO-31): > 10 µM (inactive)
GI50 (Hs-578T): > 10 µM (inactive)
GI50 (TK-10): > 10 µM (inactive)
GI50 (NCI-H23): > 10 µM (inactive)
GI50 (K562): > 10 µM (inactive)
GI50 (NCI-H226): > 10 µM (inactive)
GI50 (LOX IMVI): > 10 µM (inactive)
GI50 (SF-268): > 10 µM (inactive)
GI50 (U-251): > 10 µM (inactive)
GI50 (MDA-N): > 10 µM (inactive)
GI50 (HL-60): > 10 µM (inactive)
GI50 (CCRF-CEM): > 10 µM (inactive)
GI50 (IGROV-1): > 10 µM (inactive)
GI50 (OVCAR-4): > 10 µM (inactive)
GI50 (Malme-3M): > 10 µM (inactive)
GI50 (NCI-H522): > 10 µM (inactive)
GI50 (UACC-257): > 10 µM (inactive)
GI50 (NCI/ADR-RES): > 10 µM (inactive)
GI50 (MOLT-4): > 10 µM (inactive)
GI50 (HCT-15): > 10 µM
GI50 (SNB-19): > 10 µM (inactive)
GI50 (KM12): > 10 µM (inactive)
GI50 (DU-145): 4.4 µM (inactive)
GI50 (SF-539): > 10 µM (inactive)
GI50 (BT-549): > 10 µM (inactive)
GI50 (OVCAR-3): > 10 µM (inactive)
GI50 (SN12C): > 10 µM (inactive)
GI50 (SK-MEL-2): > 10 µM (inactive)
GI50 (SF-295): > 10 µM (inactive)
GI50 (SR): > 10 µM (inactive)
GI50 (SNB-75): > 10 µM (inactive)
GI50 (EKVX): > 10 µM (inactive)
GI50 (786-0): > 10 µM (inactive)
GI50 (UACC-62): > 10 µM (inactive)
GI50 (HOP-92): > 10 µM (inactive)

CCCCOC(=O)C(=O)C(CC(CC)C(=O)c1ccccc1)C(=O)C=C(C)C (stereo unspecified)
GI50 (MDA-MB-435): > 100 µM (inactive)
GI50 (SK-MEL-5): > 100 µM (inactive)
GI50 (COLO 205): > 100 µM (inactive)
GI50 (NCI-H460): > 100 µM (inactive)
GI50 (SK-OV-3): > 100 µM (inactive)
GI50 (A549): > 100 µM (inactive)
GI50 (MDA-MB-231): > 100 µM (inactive)
GI50 (RXF 393): > 100 µM (inactive)
GI50 (M14): > 100 µM (inactive)
GI50 (PC-3): > 100 µM (inactive)
GI50 (SW-620): > 100 µM (inactive)
GI50 (HCT-116): > 100 µM (inactive)
GI50 (OVCAR-8): > 100 µM (inactive)
GI50 (ACHN): > 100 µM (inactive)
GI50 (OVCAR-5): > 100 µM (inactive)
GI50 (HOP-62): > 100 µM (inactive)
GI50 (UO-31): > 100 µM (inactive)
GI50 (Hs-578T): > 100 µM (inactive)
GI50 (TK-10): > 100 µM (inactive)
GI50 (CAKI-1): > 100 µM (inactive)
GI50 (NCI-H23): > 100 µM (inactive)
GI50 (NCI-H226): > 100 µM (inactive)
GI50 (LOX IMVI): > 100 µM (inactive)
GI50 (SF-268): > 100 µM (inactive)
GI50 (HCC 2998): > 100 µM (inactive)
GI50 (U-251): > 100 µM (inactive)
GI50 (MDA-N): > 100 µM (inactive)
GI50 (HL-60): > 100 µM (inactive)
GI50 (MCF7): > 100 µM (inactive)
GI50 (CCRF-CEM): > 100 µM (inactive)
GI50 (IGROV-1): > 100 µM (inactive)
GI50 (OVCAR-4): > 100 µM (inactive)
GI50 (NCI-H522): > 100 µM (inactive)
GI50 (UACC-257): > 100 µM (inactive)
GI50 (NCI/ADR-RES): > 100 µM (inactive)
GI50 (MOLT-4): > 100 µM (inactive)
GI50 (HCT-15): > 100 µM
GI50 (SNB-19): > 100 µM (inactive)
GI50 (KM12): > 100 µM (inactive)
GI50 (DU-145): > 100 µM (inactive)
GI50 (SF-539): > 100 µM (inactive)
GI50 (BT-549): > 100 µM (inactive)
GI50 (OVCAR-3): > 100 µM (inactive)
GI50 (SN12C): > 100 µM (inactive)
GI50 (SK-MEL-2): > 100 µM (inactive)
GI50 (SF-295): > 100 µM (inactive)
GI50 (SNB-75): > 100 µM (inactive)
GI50 (EKVX): > 100 µM (inactive)
GI50 (786-0): > 100 µM (inactive)
GI50 (SK-MEL-28): > 100 µM (inactive)
GI50 (UACC-62): > 100 µM (inactive)
GI50 (HOP-92): > 100 µM (inactive)

CCOC(=O)c1c(-c2ccccc2)c(-c2ccccc2)cn1C
GI50 (MDA-MB-435): > 10 µM (inactive)
GI50 (NCI-H460): > 10 µM (inactive)
GI50 (SK-OV-3): > 10 µM (inactive)
GI50 (A549): > 10 µM (inactive)
GI50 (RXF 393): 3.93 µM (inactive)
GI50 (M14): > 10 µM (inactive)
GI50 (HT-29): 8.67 µM (inactive)
GI50 (OVCAR-8): > 10 µM (inactive)
GI50 (ACHN): > 10 µM (inactive)
GI50 (OVCAR-5): > 10 µM (inactive)
GI50 (UO-31): > 10 µM (inactive)
GI50 (Hs-578T): 4.92 µM (inactive)
GI50 (TK-10): > 10 µM (inactive)
GI50 (NCI-H23): > 10 µM (inactive)
GI50 (K562): > 10 µM (inactive)
GI50 (NCI-H226): > 10 µM (inactive)
GI50 (SF-268): > 10 µM (inactive)
GI50 (HCC 2998): > 10 µM (inactive)
GI50 (U-251): > 10 µM (inactive)
GI50 (MDA-N): > 10 µM (inactive)
GI50 (HL-60): > 10 µM (inactive)
GI50 (CCRF-CEM): > 10 µM (inactive)
GI50 (IGROV-1): > 10 µM (inactive)
GI50 (OVCAR-4): > 10 µM (inactive)
GI50 (Malme-3M): > 10 µM (inactive)
GI50 (NCI-H522): > 10 µM (inactive)
GI50 (UACC-257): > 10 µM (inactive)
GI50 (NCI/ADR-RES): 5.82 µM (inactive)
GI50 (MOLT-4): > 10 µM (inactive)
GI50 (HCT-15): > 10 µM
GI50 (SNB-19): > 10 µM (inactive)
GI50 (KM12): > 10 µM (inactive)
GI50 (DU-145): 8.95 µM (inactive)
GI50 (SF-539): > 10 µM (inactive)
GI50 (BT-549): > 10 µM (inactive)
GI50 (OVCAR-3): > 10 µM (inactive)
GI50 (SN12C): > 10 µM (inactive)
GI50 (SK-MEL-2): 8.15 µM (inactive)
GI50 (SF-295): > 10 µM (inactive)
GI50 (SR): 3.51 µM (inactive)
GI50 (SNB-75): > 10 µM (inactive)
GI50 (EKVX): > 10 µM (inactive)
GI50 (786-0): > 10 µM (inactive)
GI50 (UACC-62): > 10 µM (inactive)
GI50 (HOP-92): > 10 µM (inactive)

O=S(=O)(O)c1ccc2c(/N=N/c3ccccc3)c(O)ccc2c1
GI50 (RPMI-8226): > 100 µM (inactive)
GI50 (A549): > 100 µM (inactive)
GI50 (MDA-MB-231): > 100 µM (inactive)
GI50 (PC-3): > 100 µM (inactive)
GI50 (HT-29): > 100 µM (inactive)
GI50 (ACHN): > 100 µM (inactive)
GI50 (HOP-62): > 100 µM (inactive)
GI50 (Hs-578T): > 100 µM (inactive)
GI50 (TK-10): > 100 µM (inactive)
GI50 (NCI-H23): > 100 µM (inactive)
GI50 (K562): > 100 µM (inactive)
GI50 (NCI-H226): > 100 µM (inactive)
GI50 (LOX IMVI): > 100 µM (inactive)
GI50 (SF-268): > 100 µM (inactive)
GI50 (MDA-N): > 100 µM (inactive)
GI50 (OVCAR-4): > 100 µM (inactive)
GI50 (Malme-3M): > 100 µM (inactive)
GI50 (NCI-H522): > 100 µM (inactive)
GI50 (NCI/ADR-RES): > 100 µM (inactive)
GI50 (SF-295): > 100 µM (inactive)
GI50 (UACC-62): > 100 µM (inactive)
